Earlier results in patent publication US8501717B2, “Methods to treat and/or prevent mucositis” (Merck, Sharp & Dohme Corp., priority 2007, dated 2013).

Conditions: less than the effect of an equal dose of calcitriol

hypercalcemic effect compared to calcitriol (in words): reduced hypercalcemic effect
Compound: C=C1/C(=C\C=C2/CCC[C@]3(C)C([C@H](C)CC#CC(C)(C)O)=CC[C@@H]23)C[C@@H](O)C[C@@H]1O [Ro23-7553]
